Drawing on a melting point compilation (Tetko et al.; mined from patent text by program, amines drawn as free bases though some values may be those of a salt), this text covers melting point for 65 compounds.

A word on the melting point: it is the temperature, or range, at which the solid turns liquid.

In turn, `COc1ccc(N(Cc2ccc(C#N)cc2)n2ccnc2)cc1` registered a melting point of 207 °C. The result for `O=C1OCc2c(-c3noc(C4CC4)n3)ncn2-c2ccccc21` reads 206 to 209 °C. Under `CCCCCOCCCCCCCCCCCCBr` stands 25 °C; under `CC1(C)C(=O)Oc2ccc3ccc(Cn4cncn4)cc3c21`, 136 to 137 °C.

In turn, `CC(C)(C)C(=O)C(=C1SCCS1)n1cncn1` yielded a melting point of 141 °C. The result for `Cc1cccc(Cl)c1-n1[nH]c(C(C)C)c2c(=O)nc(Cc3ccc(N)cc3)nc1-2` reads 206 to 207 °C; that for `CC(C(=O)C(N)=O)c1ccc(N2Cc3ccccc3C2=O)cc1` (stereo not given), 220 to 222 °C. Under `COc1cc(C(=O)OC2CC3C(=O)NC4(C(=O)NS(=O)(=O)C5CC5)CC4C=CCCCCCC(NC(=O)OC(C)(C)C)C(=O)N3C2)n(OC)n1` (stereo not given) stands 149 to 151 °C; under `CCCCC(=O)c1c(-c2ccc3cc(O)ccc3c2)oc2ccc(Cl)cc12`, 156 to 157 °C. Consider `CC(=O)SC(CC(=O)c1ccc(F)cc1)C(=O)O` (stereo not given), for which the melting point was 108 to 110 °C. Under `COC(=O)c1cc(F)ccc1Nc1ccnc2cc(Cl)ccc12` stands 180 °C.

For the compound `C=CC1(C=CC)OC(=O)N(c2cc(Cl)cc(Cl)c2)C1=O` (stereo not given), the melting point is 141 °C. In the case of `N#Cc1ccc(OCc2ccsc2)cc1OC(C(=O)O)c1ccccc1C(F)(F)F` (racemic), the melting point was in the range of 38 to 40 °C. Take `Oc1ccc(Cl)c(-n2ccnc2)c1`: the melting point lay in the range of 204 to 205 °C.

Consider `CN(N)C(=S)Nc1ccc(F)cc1`, for which the melting point lay in the range of 148 to 150 °C.

Compound `COc1ccc(S(=O)(=O)N(Cc2ccccc2)c2c(C(=O)NO)cnc3c2c(C)nn3C)cc1` came in with a melting point of 184 to 186 °C. Under `NC(N)=NC(=O)Cc1c(-c2ccccc2Cl)csc1-c1ccc(Oc2ccccc2)cc1` stands 76 to 78 °C. The result for `COc1ccccc1N1CCc2c1c1cccc(C)c1[nH]c2=O` reads 193 to 195 °C; that for `OCc1cc2cccc(Nc3cc(-c4ccc(C(F)(F)F)cc4)ncn3)c2[nH]1`, 221 to 223 °C; that for `CC(C)(C(=O)O)c1ccc(C(=O)C2CC2)cc1`, 84 to 88 °C.

Consider `O=C1c2ccccc2N(Cc2ccc(F)cc2)C2=NCCN12`, for which the melting point was 192 to 195 °C.

`COc1ccc2c(c1)C(=O)c1cccc(OC)c1-2` returned a melting point of 125 to 127 °C.

On to `CN(Cc1ccc(NC(=O)C2=Cc3cc(-c4ccc(O)cc4)ccc3S(=O)(=O)CC2)cc1)C1CCOCC1`, for which the melting point lay in the range of 232 to 234 °C. Consider `CC(C)(C)c1cc(NC(=O)Nc2ccc(OCCN3CCOCC3)c3ccccc23)n(-c2ccccc2)n1`, for which the melting point lay in the range of 142 to 143 °C.

Compound `CCCCc1nc(Cl)c(C=O)n1Cc1ccc(-c2ccccc2-c2nc(=O)o[nH]2)cc1` returned a melting point of 181 to 183 °C. Under `N=C(NO)c1cccc2nc(N[C@@H]3CCc4ccccc43)ccc12` stands 200 °C; under `COc1ccc(CNc2ncccc2C(=O)O)cc1`, 229 °C; under `COc1ccc(-c2ccc(N3CCCN(c4ccc(-c5ccc(OC)c(OC)c5)cn4)CC3)nc2)cc1OC`, 190 to 192 °C. Under `CS(=O)(=O)c1ccc(Oc2ccc(Br)cc2)cc1` stands 128 to 129 °C; under `CN1C(=O)CC[C@]2(C)c3ccc(Sc4ccc5nc6ccccc6c(=O)n5n4)cc3CC[C@@H]12`, 110 to 114 °C; under `CCC(=O)Nc1ccc(-c2ccc(C(=O)N3CCN4CCC3CC4)o2)cc1`, 264 °C. For the compound `NC(=O)c1cc2ccc(OCC(O)CCl)cc2o1` (stereo not given), the melting point lay in the range of 109 to 110 °C. Under `CC(=O)OC1C(OC2=NN(Cc3ccccc3)C(=O)C3CC23)c2cc(C#N)ccc2OC1(C)C` (stereo not given) stands 149 to 151 °C.

As for `CCCCCCCCCCCCCCCCCCNC(=O)NCCN`, the melting point was 108 to 127 °C. `COc1ccc(C(=O)c2ccccc2C=O)cc1` registered a melting point of 90 to 91 °C. Under `CC(Oc1ccc(Cl)cc1)c1nnc(N)s1` (stereo not given) stands 162 to 166 °C; under `CCN1C(=O)c2cccnc2Sc2ccccc21`, 148 to 149 °C; under `CCCCCCCCCNC(=O)CCC(=O)O`, 114 to 116 °C.

As for `CCCOc1cc(-c2cc(C=CC(=O)O)ccc2O)cc2c1C(C)(C)CCC2(C)C`, the melting point is 114 to 116 °C. The result for `CC(C)Oc1ccc(CCCOc2nn(C)cc2CC(=O)O)c(OCc2ccc(Cl)cc2Cl)c1` reads 102 to 103 °C. The compound `O=C1c2nc[nH]c2N(Cc2ccccc2)C2=NCCN12` gave a melting point of 262 to 264 °C. The result for `CC(=O)Nc1ccc(S(=O)(=O)CCN2CCOCC2)cc1` reads 136 to 137 °C; that for `CC1(C)C(C#CC(=O)OCC(Cl)(Cl)Cl)C1C(=O)OC(C#N)c1cccc(Oc2ccccc2)c1` (stereo not given), 101 °C. Under `CCNc1nc(SC)ncc1C=Nc1cc(OC)cc(OC)c1Cl` stands 196 to 198 °C; under `NS(=O)(=O)c1cccc(S(=O)(=O)NC2CC2)c1`, 170 to 174 °C; under `COc1ccc(C(Cc2ccncc2)c2ccc(C(=O)O)cc2)cc1OC1CCCC1` (stereo not given), 161 to 163 °C. The result for `CCCCCCCCCCc1nc(N(C)C)nc(C)c1O` reads 71 to 72 °C.

In turn, `CCOC(COC1CC2C3CCC4=CC(=O)C=CC4(C)C3(F)C(O)CC2(C)C1(O)C(=O)CCl)OCC` (stereo not given) gave a melting point of 200 to 202 °C.

`CCCCCCCCCCCCCCCCCCOc1cc(C(N)=O)cc(N(CC(=O)O)CC(=O)O)c1` showed a melting point of 213 to 216 °C. Under `OCCCc1cn(-c2ccc(C(F)(F)F)cn2)nc1-c1ccccc1` stands 99 to 100 °C; under `CS(=O)(=O)c1ccc(-c2cc(C(=O)c3ccccc3)sc2N2CCOCC2)cc1`, 173 °C.

The compound `CCOC(=O)Nc1ccc(C)c(Cl)c1` showed a melting point of 51 to 52 °C.

Compound `COc1ccccc1Oc1c(N=[N+]=[N-])nc(-c2ncccn2)nc1C(=O)OCCO` had a melting point of 133 to 134 °C. The result for `CCCCCN1C(=O)C(CCC(=O)OC)(NC(=O)C2CCc3ccccc3C2)c2ccccc21` (stereo not given) reads 172 to 179 °C. The result for `CCCCC(=NNC=O)c1ccncc1` reads 143 °C.

As to `O=C(O)CCc1cnoc1-c1ccc(Cl)cc1Cl`, the melting point was 106 to 107 °C. On to `OC(CCNCc1ccccc1)(COc1ccc(Cl)cc1)c1ccccc1` (stereo not given), for which the melting point is 70 to 71 °C. Under `CN1CCCCC1CCc1ccccc1NC(=O)c1ccc(OC(C)(C)C)cc1` (stereo not given) stands 91 to 93.5 °C; under `COC=C(c1cccnc1)C(C)c1ccc(Cl)cc1Cl` (stereo not given), 67 to 68 °C; under `CCN1CC(=O)c2ccc3ccccc3c2S1(=O)=O`, 146 to 147 °C. Under `CNC(=O)c1cc(-c2ccc(OC)cc2)nn(CCO)c1=O` stands 160 to 161 °C; under `CC(C)(C)OC(=O)NCCc1ccc([N+](=O)[O-])cc1`, 94 to 95 °C. Under `CC(C)C[C@H](NC(=O)O[C@H]1CCOC1)C(=O)O` stands 94.9 to 96 °C; under `O=C(Nc1cccc(C(F)(F)F)c1)C12CC3CC(CC(C3)C1)C2`, 171 to 174 °C; under `Cc1ccc(CC2=NOS(=O)N2)cc1C` (stereo not given), 127 to 130 °C.
